Source: PMC6451005, “PCC0208027, a novel tyrosine kinase inhibitor, inhibits tumor growth of NSCLC by targeting EGFR and HER2 aberrations” (Scientific Reports, 2019)
Like-named read-outs stand apart in the source and are kept apart here. Marks after values point to notes of the source that are not given here. Values belong to the compound of their own block, whether it stands above or below them.

What was measured:
[1] = test system: HCC827 cells; test: Western blot assay; assay type: cell-based, Human; details: 24 h; for Phosphorylation of EGFR and its downstream AKT and ERK: Western blotting
Procedure: (§1) The BCA reagent kit (Beyotime Biotechnology) was used to measure protein content. The cell extracts (50 μg protein) were loaded onto a 4–20% ExpressPlus™ PAGE pre-cast gel (GenScript, China) for electrophoresis before transferring to a PVDF membrane. The membranes were blocked with 5% skimmed milk (prepared using Tris-buffered saline containing 0.05% Tween-20) before incubation with primary antibodies at 4 °C overnight. The membranes were then incubated with HRP-conjugated secondary antibodies at room temperature. The Alphaview SA system and software (version 3.4.0, ProteinSimple, USA) was used for quantitative analysis of the optical density of the bands.

[2] = test system: NCI-H1975 cells; test: Cell growth inhibition assay (MTT); assay type: cell-based; details: Homo sapiens, read-out: IC50 cell viability
Procedure: (§2) Human NSCLC cells NCI-H1975, HCC827, Calu-3 and A549were obtained from the Cell Culture Center of the Institute of Basic Medical Sciences, Chinese Academy of Medical Sciences. NCI-H1781 cell line was purchased from Cobioer Biosciences Co., Ltd. With the exception of Calu-3, all cell lines were cultured in RPMI-1640 medium (Gibco, USA) supplemented with 10% fetal bovine serum (FBS) (Gibco, USA). Calu-3 was maintained in Minimum Essential Medium (MEM) supplemented with 10% FBS (Gibco, USA), 5% 100 mM Sodium Pyruvate (Gibco, USA), and 5% Non-Essential Amino Acids Solution (NEAA; Gibco, USA). All cells were incubated at 37 °C with 5% CO2 in air.
(§3) According to the previous report, 5 × 10^3 cells/100 μL were seeded in culture medium in every well in a 96-well plate for 24 hours. […] After 72 h of treatment, MTT (Beyotime Biotechnology, China) was added at a final concentration of […] and incubated for 3 hours. Following that, DMSO was used to dissolve the formazan product and the Molecular Devices SpectraMax M5 microplate reader (Molecular Devices, USA) was used to measure absorbance at 570 nm and IC50 was calculated.

[3] = test system: Calu-3 cells; test: Cell growth inhibition assay (MTT); assay type: cell-based; details: Homo sapiens, read-out: IC50 cell viability
Procedure: as §2, §3

[4] = test system: NCI-H1781 cells; test: Cell growth inhibition assay (MTT); assay type: cell-based; details: Homo sapiens, read-out: IC50 cell viability
Procedure: as §2, §3

[5] = test system: HCC827 xenograft; test: Nude mouse xenograft model; details: for number of p-EGFR and Ki67 positive cells in tumor tissues: HCC827 xenograft model, IHC, vs control group
[6] = test system: A549 cells; test: Cell growth inhibition assay (MTT); assay type: cell-based, Human; details: for IC50: Homo sapiens, read-out: IC50 cell viability
Procedure: as §2, §3

[7] = test system: NCI-H1975 xenograft; test: Nude mouse xenograft model; details: for Body weight (g) Begin / IR (%) inhibition rate of tumor growth (tumor weight) / Body weight (g) End: NCI-H1975 xenograft; for IR (%) inhibition rate of tumor growth (tumor weight): 15 days; for number of p-EGFR and Ki67 positive cells in tumor tissues: NCI-H1975 xenograft model, IHC
[8] = test system: HCC827 cells; test: Cell growth inhibition assay (MTT); assay type: cell-based; details: Homo sapiens, read-out: IC50 cell viability
[9] = test system: NCI-H1975 cells; test: Western blot assay; assay type: cell-based, Human; details: 24 h; for EGFR signaling: Western blotting
Procedure: as §1

[10] = test system: Calu-3 xenograft; test: Nude mouse xenograft model; details: for Body weight (g) Begin / IR (%) inhibition rate of tumor growth (tumor weight) / Body weight (g) End: Calu-3 xenograft; for IR (%) inhibition rate of tumor growth (tumor weight): 15 days
[11] = test system: EGFR phosphorylation in A431 cells; test: Western blot assay; assay type: cell-based; details: A431 cells with EGFR WT, 24 h, Western blotting
Procedure: as §1, with “After centrifugation at 12000 g for 15 minutes, the supernatant was collected. The BCA” for “The BCA”

[12] = biological target: EGFR L858R (Homo sapiens, UniProt P00533, L858R); test: In vitro kinase assay
[13] = biological target: T1, Her2 Wild Type (Homo sapiens, UniProt P04626); test: In vitro kinase assay; assay type: biochemical; details: WT; n = 2
T1 construct: purchased Invitrogen (Shanghai) Co., Ltd
T1 sequence (P04626 23-1255): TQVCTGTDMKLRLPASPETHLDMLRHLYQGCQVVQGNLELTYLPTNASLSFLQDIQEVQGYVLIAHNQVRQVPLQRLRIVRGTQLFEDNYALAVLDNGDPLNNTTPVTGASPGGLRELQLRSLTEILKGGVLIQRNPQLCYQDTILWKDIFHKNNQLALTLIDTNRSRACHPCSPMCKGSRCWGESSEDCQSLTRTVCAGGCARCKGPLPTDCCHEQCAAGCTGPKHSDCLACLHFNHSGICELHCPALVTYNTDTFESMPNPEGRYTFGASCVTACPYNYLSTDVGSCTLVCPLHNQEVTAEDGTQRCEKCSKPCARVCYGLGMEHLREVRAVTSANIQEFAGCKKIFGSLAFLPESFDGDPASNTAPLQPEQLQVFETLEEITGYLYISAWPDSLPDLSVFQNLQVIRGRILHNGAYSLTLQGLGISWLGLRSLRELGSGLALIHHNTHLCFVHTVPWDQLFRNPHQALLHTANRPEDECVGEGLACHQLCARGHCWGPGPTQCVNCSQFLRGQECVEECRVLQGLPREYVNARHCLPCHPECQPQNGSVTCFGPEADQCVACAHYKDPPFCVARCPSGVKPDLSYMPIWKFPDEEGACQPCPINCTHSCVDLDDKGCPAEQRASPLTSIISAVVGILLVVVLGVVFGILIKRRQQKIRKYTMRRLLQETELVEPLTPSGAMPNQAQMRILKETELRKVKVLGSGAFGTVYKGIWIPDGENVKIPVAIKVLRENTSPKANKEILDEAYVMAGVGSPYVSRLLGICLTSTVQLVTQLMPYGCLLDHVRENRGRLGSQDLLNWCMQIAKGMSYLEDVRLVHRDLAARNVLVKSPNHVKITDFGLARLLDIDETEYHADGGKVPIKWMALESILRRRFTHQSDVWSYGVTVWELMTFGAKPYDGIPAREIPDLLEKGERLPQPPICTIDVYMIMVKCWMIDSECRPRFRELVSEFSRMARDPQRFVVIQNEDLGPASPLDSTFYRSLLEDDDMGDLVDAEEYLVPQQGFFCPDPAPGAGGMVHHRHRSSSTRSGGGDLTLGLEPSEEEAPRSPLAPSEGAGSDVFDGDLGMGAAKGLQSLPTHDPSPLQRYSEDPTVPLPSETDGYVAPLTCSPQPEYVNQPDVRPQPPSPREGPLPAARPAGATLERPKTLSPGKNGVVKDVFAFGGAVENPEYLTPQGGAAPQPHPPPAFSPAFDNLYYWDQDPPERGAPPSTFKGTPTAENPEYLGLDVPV

[14] = biological target: T2, Her4 Wild Type (Homo sapiens, UniProt Q15303); test: In vitro kinase assay; assay type: biochemical; details: WT; n = 2
T2 construct: purchased Invitrogen (Shanghai) Co., Ltd
T2 sequence (Q15303 26-1308): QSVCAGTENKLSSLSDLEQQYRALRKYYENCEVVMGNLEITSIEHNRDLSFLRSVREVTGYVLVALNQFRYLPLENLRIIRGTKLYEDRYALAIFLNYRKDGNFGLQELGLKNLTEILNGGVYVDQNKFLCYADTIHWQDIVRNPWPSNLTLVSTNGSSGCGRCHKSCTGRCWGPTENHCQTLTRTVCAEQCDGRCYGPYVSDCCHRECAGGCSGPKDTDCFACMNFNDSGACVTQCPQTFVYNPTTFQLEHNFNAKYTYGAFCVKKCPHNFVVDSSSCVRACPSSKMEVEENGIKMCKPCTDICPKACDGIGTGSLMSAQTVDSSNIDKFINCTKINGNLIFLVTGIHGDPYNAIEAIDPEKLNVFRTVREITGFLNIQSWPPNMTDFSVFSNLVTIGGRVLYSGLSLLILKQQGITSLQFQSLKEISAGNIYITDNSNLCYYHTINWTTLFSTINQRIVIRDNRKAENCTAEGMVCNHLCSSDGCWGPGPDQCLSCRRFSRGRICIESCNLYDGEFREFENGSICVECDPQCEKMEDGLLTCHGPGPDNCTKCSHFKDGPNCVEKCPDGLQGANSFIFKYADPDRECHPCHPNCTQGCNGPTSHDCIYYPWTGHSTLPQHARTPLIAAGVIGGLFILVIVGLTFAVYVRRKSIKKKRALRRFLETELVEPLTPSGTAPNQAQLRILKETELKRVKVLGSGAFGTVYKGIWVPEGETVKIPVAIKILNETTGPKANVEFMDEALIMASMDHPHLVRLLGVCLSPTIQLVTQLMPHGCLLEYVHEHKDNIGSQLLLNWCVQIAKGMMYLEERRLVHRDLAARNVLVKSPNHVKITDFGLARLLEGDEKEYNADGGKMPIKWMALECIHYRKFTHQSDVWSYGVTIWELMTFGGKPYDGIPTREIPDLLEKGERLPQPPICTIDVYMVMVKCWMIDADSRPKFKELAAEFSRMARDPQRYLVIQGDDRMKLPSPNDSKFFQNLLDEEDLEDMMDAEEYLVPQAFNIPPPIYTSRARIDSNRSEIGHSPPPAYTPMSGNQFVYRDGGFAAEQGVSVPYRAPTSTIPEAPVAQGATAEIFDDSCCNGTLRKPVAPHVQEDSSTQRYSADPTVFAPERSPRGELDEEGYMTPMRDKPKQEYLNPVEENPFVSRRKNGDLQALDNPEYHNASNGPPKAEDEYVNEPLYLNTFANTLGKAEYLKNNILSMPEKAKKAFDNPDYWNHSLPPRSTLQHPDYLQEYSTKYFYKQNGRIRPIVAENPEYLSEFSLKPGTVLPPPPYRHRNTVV

[15] = biological target: EGFR T790M (Homo sapiens, UniProt P00533, T790M); test: In vitro kinase assay
[16] = biological target: EGFR Wild Type (Homo sapiens, UniProt P00533); test: In vitro kinase assay
EGFR Wild Type, sequence (P00533 25-1210): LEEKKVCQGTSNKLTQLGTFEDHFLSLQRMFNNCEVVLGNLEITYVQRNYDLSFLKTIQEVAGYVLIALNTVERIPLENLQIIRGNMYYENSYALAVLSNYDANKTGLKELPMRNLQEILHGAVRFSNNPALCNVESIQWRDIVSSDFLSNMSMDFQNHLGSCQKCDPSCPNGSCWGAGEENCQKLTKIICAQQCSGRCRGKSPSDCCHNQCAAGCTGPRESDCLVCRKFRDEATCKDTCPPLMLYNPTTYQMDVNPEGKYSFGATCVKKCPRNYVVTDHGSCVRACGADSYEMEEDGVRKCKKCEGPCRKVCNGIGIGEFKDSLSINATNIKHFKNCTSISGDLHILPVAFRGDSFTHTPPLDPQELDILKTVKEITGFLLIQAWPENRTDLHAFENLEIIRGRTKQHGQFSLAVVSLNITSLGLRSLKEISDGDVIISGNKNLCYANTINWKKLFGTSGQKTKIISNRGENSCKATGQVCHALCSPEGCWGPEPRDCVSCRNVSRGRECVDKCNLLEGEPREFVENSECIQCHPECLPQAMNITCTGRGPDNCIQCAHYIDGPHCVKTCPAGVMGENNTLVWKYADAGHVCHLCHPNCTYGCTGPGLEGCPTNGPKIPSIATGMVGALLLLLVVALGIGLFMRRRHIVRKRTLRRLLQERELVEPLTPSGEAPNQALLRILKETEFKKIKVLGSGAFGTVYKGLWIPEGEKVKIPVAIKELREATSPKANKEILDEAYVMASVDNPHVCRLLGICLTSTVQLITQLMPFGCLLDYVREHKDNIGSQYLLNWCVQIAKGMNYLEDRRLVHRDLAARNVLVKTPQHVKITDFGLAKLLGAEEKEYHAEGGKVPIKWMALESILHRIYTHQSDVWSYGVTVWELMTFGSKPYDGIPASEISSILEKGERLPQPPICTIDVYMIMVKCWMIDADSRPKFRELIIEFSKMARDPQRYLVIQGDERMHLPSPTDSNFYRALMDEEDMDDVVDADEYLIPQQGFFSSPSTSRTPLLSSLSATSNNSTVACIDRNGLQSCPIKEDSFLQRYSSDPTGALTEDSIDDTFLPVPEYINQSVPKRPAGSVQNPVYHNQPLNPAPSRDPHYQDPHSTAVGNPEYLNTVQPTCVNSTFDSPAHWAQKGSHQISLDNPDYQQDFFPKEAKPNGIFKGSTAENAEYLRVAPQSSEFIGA

[17] = biological target: EGFR L858R/T790M (Homo sapiens, UniProt P00533, L858R/T790M); test: In vitro kinase assay
[18] = biological target: EGFR d746–750/T790M (Homo sapiens, UniProt P00533, DEL746-750/T790M); test: In vitro kinase assay
EGFR d746–750/T790M, sequence (P00533 with tags, fused parts or gaps DEL746-750/T790M): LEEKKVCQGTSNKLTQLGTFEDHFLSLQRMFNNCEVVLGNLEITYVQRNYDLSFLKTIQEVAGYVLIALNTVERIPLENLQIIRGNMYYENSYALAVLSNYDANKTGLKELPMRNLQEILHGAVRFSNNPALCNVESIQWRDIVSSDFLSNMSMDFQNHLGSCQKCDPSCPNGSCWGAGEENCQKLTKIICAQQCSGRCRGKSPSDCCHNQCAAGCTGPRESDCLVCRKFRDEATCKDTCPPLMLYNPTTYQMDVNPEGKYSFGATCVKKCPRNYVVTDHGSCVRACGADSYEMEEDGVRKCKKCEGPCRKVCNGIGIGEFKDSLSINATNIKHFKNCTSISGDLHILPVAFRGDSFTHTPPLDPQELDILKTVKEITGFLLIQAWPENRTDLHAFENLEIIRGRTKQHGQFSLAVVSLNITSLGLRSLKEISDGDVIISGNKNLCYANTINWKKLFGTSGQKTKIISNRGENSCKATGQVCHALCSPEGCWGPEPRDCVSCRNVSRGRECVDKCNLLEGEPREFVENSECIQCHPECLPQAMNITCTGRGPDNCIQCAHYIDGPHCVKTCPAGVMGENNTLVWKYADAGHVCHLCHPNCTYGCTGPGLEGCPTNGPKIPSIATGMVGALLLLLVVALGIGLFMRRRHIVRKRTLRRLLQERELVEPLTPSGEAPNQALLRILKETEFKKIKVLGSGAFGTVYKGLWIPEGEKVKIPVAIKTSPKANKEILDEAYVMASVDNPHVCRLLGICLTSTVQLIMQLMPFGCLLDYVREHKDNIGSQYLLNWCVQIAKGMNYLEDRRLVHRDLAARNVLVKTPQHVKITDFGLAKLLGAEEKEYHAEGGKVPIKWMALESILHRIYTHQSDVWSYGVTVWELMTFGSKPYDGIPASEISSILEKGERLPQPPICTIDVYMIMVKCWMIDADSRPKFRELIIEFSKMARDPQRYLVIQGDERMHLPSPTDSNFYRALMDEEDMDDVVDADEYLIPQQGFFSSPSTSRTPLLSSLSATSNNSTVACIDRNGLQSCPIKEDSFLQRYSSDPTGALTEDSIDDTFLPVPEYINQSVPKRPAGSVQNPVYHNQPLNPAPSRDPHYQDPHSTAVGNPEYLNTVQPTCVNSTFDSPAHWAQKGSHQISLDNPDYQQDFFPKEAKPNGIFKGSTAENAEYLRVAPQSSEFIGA

[19] = test system: HER2 phosphorylation in Calu-3 cells; test: Western blot assay; assay type: cell-based, Human; details: 24 h, Western blotting
Procedure: as §1, with “After centrifugation at 12000 g for 15 minutes, the supernatant was collected. The BCA” for “The BCA”

[20] = HCC827 xenograft, 2.5 mg/kg/day group
[21] = HCC827 xenograft, 2.5 mg/kg/day oral
[22] = HCC827, EGFR (Del E746_A750), MTT, 72 h, mean ± s.d. (n = 3)
[23] = NCI-H1975, EGFR (L858R/T790M), MTT, 72 h, mean ± s.d. (n = 3)
[24] = Calu-3, HER-2 (WT, amplified), MTT, 72 h, mean ± s.d. (n = 3)
[25] = NCI-H1781, HER-2 (G776V, Cins), MTT, 72 h, mean ± s.d. (n = 3)
[26] = HCC827 xenograft, 1 mg/kg/day group
[27] = HCC827 xenograft, 1 mg/kg/day oral, 15 days
[28] = HCC827 xenograft, 1 mg/kg/day oral
[29] = A549, K-ras mutation (G12S), MTT, 72 h, mean ± s.d. (n = 3)

IC50 ([2]; NCI-H1975, 72 h): > 1000 nM
IC50 ([3]; Calu-3, 72 h): > 1000 nM
IC50 ([4]; NCI-H1781, 72 h): > 1000 nM
decrease of body weight of animals ([5]; HCC827 xenograft models): more than 20%
IC50 ([6]; A549, 72 h): > 1000 nM
Structure (SMILES): C#Cc1cccc(Nc2ncnc3cc(OCCOC)c(OCCOC)cc23)c1 [Erlotinib]
Phosphorylation of EGFR and its downstream AKT and ERK [1]: inhibited
number of p-EGFR and Ki67 positive cells in tumor tissues [5]: strongly decreased
Body weight (g) Begin ([5]; HCC827 xenograft, 100 mg/kg/day group): 17.65 ± 0.95 g
Body weight (g) End ([5]; HCC827 xenograft, 100 mg/kg/day oral): 13.82 ± 0.75 g
tumor growth (in words) ([7]; NCI-H1975 xenograft models, vs. control group): did not inhibit tumor growth
Body weight (g) Begin ([7]; 100 mg/kg/day group): 16.63 ± 1.02 g
IR (%) inhibition rate of tumor growth (tumor weight) ([7]; 100 mg/kg/day oral): 29.78%
Body weight (g) End ([7]; 100 mg/kg/day oral): 14.54 ± 1.10 g

Structure (SMILES): C=CC(=O)Nc1cc(Nc2nccc(-c3cn(C)c4ccccc34)n2)c(OC)cc1N(C)CCN(C)C [Osimertinib]
IC50 ([8]; HCC827, 72 h): 1.09 ± 0.22 nM
Phosphorylation of EGFR and its downstream AKT and ERK [1]: inhibited
EGFR signaling [9]: inhibited
IC50 ([4]; NCI-H1781, 72 h): 842 ± 34 nM
number of p-EGFR and Ki67 positive cells in tumor tissues [5]: strongly decreased
Body weight (g) Begin [5, 20]: 17.57 ± 1.03 g
Body weight (g) End [5, 21]: 19.13 ± 0.78 g
IR (%) inhibition rate of tumor growth (tumor weight) ([5]; mouse, in vivo, po, 2.5 mg/kg/day): 91.19^*** %
IC50 ([6]; A549, 72 h): > 1000 nM
tumor growth (in words) ([10]; Calu-3 xenograft models, vs. control group): did not show any significant inhibitory activity
Body weight (g) Begin ([10]; 5 mg/kg/day group): 17.42 ± 0.82 g
IR (%) inhibition rate of tumor growth (tumor weight) ([10]; 5 mg/kg/day oral): 20.21%
Body weight (g) End ([10]; 5 mg/kg/day oral): 18.24 ± 0.78 g
number of p-EGFR and Ki67 positive cells in tumor tissues [7]: strongly decreased
Body weight (g) Begin ([7]; 10 mg/kg/day group): 16.55 ± 0.82 g
IR (%) inhibition rate of tumor growth (tumor weight) ([7]; 10 mg/kg/day oral): 98.60^*** %
Body weight (g) End ([7]; 10 mg/kg/day oral): 16.23 ± 1.31 g

IC50 [12]: 0.0047 nM
IC50 [13]: 0.025 nM
IC50 [14]: 0.11 nM
IC50 [15]: 0.61 nM
IC50 [8, 22]: 4.22 ± 0.51 nM
IC50 [16]: 0.077 nM
IC50 [2, 23]: 11.1 ± 4.39 nM
IC50 [3, 24]: 6.07 ± 0.29 nM
IC50 [4, 25]: 5.97 ± 1.37 nM
IC50 [6, 29]: > 1000 nM
decrease of body weight of animals ([7]; NCI-H1975 xenograft models): less than 10%
IC50 [17]: 0.94 nM
IC50 [18]: 0.82 nM
Structure (SMILES): C=CC(=O)N1CCC(Oc2cc3c(Nc4ccc(Cl)c(Cl)c4F)ncnc3cc2O)CC1 [PCC0208027]
phosphorylation of EGFR [11]: potential inhibitory activity
Phosphorylation of EGFR and its downstream AKT and ERK [1]: inhibited
expression of CDK2, CDK4 and E2F ([1]; western blot): significantly decreased
EGFR signaling [9]: inhibited
expression of CDK2, CDK4 and E2F ([9]; western blot): significantly decreased
number of p-EGFR and Ki67 positive cells in tumor tissues [5]: strongly decreased
Body weight (g) Begin [5, 26]: 17.67 ± 0.60 g
IR (%) inhibition rate of tumor growth (tumor weight) [5, 27]: 81.24^*** %
Body weight (g) End [5, 28]: 18.22 ± 0.91 g
Body weight (g) Begin [5, 20]: 17.63 ± 0.68 g
IR (%) inhibition rate of tumor growth (tumor weight) ([5]; HCC827 xenograft, 2.5 mg/kg/day oral, 15 days, 2.5 mg/kg/day): 90.53%
IR (%) inhibition rate of tumor growth (tumor weight) ([5]; HCC827 xenograft, 2.5 mg/kg/day oral, 15 days, listed as PCC, 2.5 mg/kg/day): 90.53^*** %
Body weight (g) End [5, 21]: 17.92 ± 0.77 g
anti-tumor activity (in words) ([6]; A549 cells with KRAS mutation): no anti-tumor activity
number of p-HER2 and Ki67 positive cells in tumor tissues ([10]; Calu-3 xenograft model, IHC, vs control group): significantly reduce
Body weight (g) Begin ([10]; 2.5 mg/kg/day group): 17.30 ± 0.37 g
IR (%) inhibition rate of tumor growth (tumor weight) ([10]; 2.5 mg/kg/day oral): 50.02^** %
Body weight (g) End ([10]; 2.5 mg/kg/day oral): 16.94 ± 0.44 g
Body weight (g) Begin ([10]; 5 mg/kg/day group): 17.62 ± 0.77 g
IR (%) inhibition rate of tumor growth (tumor weight) ([10]; 5 mg/kg/day oral): 80.07^*** %
Body weight (g) End ([10]; 5 mg/kg/day oral): 16.56 ± 0.59 g
number of p-EGFR and Ki67 positive cells in tumor tissues [7]: strongly decreased
Body weight (g) Begin ([7]; 5 mg/kg/day group): 16.68 ± 0.57 g
IR (%) inhibition rate of tumor growth (tumor weight) ([7]; 5 mg/kg/day oral): 84.61^*** %
Body weight (g) End ([7]; 5 mg/kg/day oral): 15.70 ± 0.58 g
Body weight (g) Begin ([7]; 10 mg/kg/day group): 16.40 ± 0.58 g
IR (%) inhibition rate of tumor growth (tumor weight) ([7]; 10 mg/kg/day oral): 97.98^*** %
Body weight (g) End ([7]; 10 mg/kg/day oral): 15.07 ± 0.65 g
Phosphorylation level of HER2 [19]: inhibited obviously

IC50 [13]: 0.07 nM
IC50 [14]: 0.18 nM
IC50 [8, 22]: 1.72 ± 0.32 nM
IC50 [2, 23]: 8.78 ± 3.03 nM
IC50 [3, 24]: 2.47 ± 0.52 nM
IC50 [4, 25]: 6.17 ± 0.42 nM
IC50 [6, 29]: > 1000 nM
Structure (SMILES): C=CC(=O)N1CCC(Oc2cc3c(Nc4ccc(Cl)c(Cl)c4F)ncnc3cc2OC)CC1 [Poziotinib]
Body weight (g) Begin [5, 26]: 17.55 ± 0.96 g
IR (%) inhibition rate of tumor growth (tumor weight) [5, 27]: 93.25^*** %
Body weight (g) End [5, 28]: 17.21 ± 0.90 g
Body weight (g) Begin ([10]; 2.5 mg/kg/day group): 17.72 ± 0.73 g
IR (%) inhibition rate of tumor growth (tumor weight) ([10]; 2.5 mg/kg/day oral): 77.16^*** %
Body weight (g) End ([10]; 2.5 mg/kg/day oral): 16.36 ± 0.92 g
Body weight (g) Begin ([7]; 2.5 mg/kg/day group): 16.44 ± 0.69 g
IR (%) inhibition rate of tumor growth (tumor weight) ([7]; 2.5 mg/kg/day oral): 98.18^*** %
Body weight (g) End ([7]; 2.5 mg/kg/day oral): 14.62 ± 0.67 g
